Structures can show the parent of a compound that is named as a salt.
Legend:
human recombinant H-PGDS [1] = molecular target: T1, human recombinant H-PGDS (Homo sapiens, UniProt O60760); assay: Slightly modified h-PGDS TBA enzyme assay (Examples 529, 565, 566, 574-588 and 591); type: biochemical; conditions: slightly modified assay (Examples 529, 565, 566, 574-588 and 591); 1:40,000 human recombinant H-PGDS
Protocol: Prostaglandin D Synthase (PGDS) converts the substrate prostaglandin H2 (PGH2) to prostaglandin D2. The depletion of PGH2 was measured via an Fe(II) reduction of the remaining PGH2 to malondialdehyde (MDA) and 12-HHT. The enzyme assay is based on the quantitative formation of a fluorescent complex from the non-fluorescent compounds MDA and 2-thiobarbituric acid (TBA), substantially as described in U.S. patent application publication US-2004/152148 by Lombardt.
Examples 529, 565, 566, 574-588 and 591 were tested in a slightly modified assay: The enzyme assay (30 μls during biological process) contained 100 mM Trizma pH 8.0, 100 μM MgCl2, 0.1 mg/ml IgG Rabbit serum, 5.0 μM PGH2 (Cayman; ethanol solution, #17020), 2.5 mM L-Glutathione (Sigma; reduced form #G4251), 1:40,000 human recombinant H-PGDS (from 1 mg/ml), 0.5% DMSO and inhibitor (varying concentration). 3 μls of diluted inhibitor (dissolved in DMSO) was plated into a 384-well assay plate followed by a 24 μl addition of an enzyme solution containing h-PGDS, Trizma, MgCl2, IgG and L-Glutathione. After pre-incubation of inhibitor and enzyme solution for 10 minutes at room temperature, the reaction was initiated with a 3 μl addition of substrate solution in 10 mM HCl. The reaction was terminated after 40 second by the addition of 3 μl stop buffer containing FeCl2 and citric acid. After addition of 45 μls of TBA plates were heated for one hour in a 70° C. oven. Plates were cooled at room temperature overnight and read on a plate reader the next day with excitation @ 530 nm and emission @ 560 nm. IC50's of inhibitors were calculated with a 4-parameter fit using 11 inhibitor concentrations in duplicate with ½ log serial dilutions. Controls on each plate included no inhibitor (zero % effect) and an inhibitor 500-fold in excess of its' IC50 (100% effect). The highest inhibitor concentration tested was typically 10 μM.

human recombinant H-PGDS [2] = molecular target: T1, human recombinant H-PGDS; assay: Fluorescence Intensity h-PGDS TBA Enzyme Assay; type: biochemical; conditions: 1:175,000 human recombinant H-PGDS, highest inhibitor concentration typically 1 μM
How it was run: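 Readout is PGH2 depletion: after a 42 s reaction with 5.0 μM PGH2 and 2.5 mM glutathione (pH 8.0 Tris, 10 min inhibitor preincubation), Fe(II) converts leftover PGH2 to MDA, which forms a fluorescent TBA complex. IC50s come from 11-point, 3-fold duplicate curves, 4-parameter fit.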

T1 sequence (O60760 whole entry): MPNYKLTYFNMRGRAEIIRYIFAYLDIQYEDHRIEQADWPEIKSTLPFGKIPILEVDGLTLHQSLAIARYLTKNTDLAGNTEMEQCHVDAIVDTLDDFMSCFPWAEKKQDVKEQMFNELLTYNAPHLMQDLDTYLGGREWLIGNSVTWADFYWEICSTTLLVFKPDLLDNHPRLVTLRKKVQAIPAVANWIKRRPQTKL

Compound	IC50 (human recombinant H-PGDS [1]) [nM]	IC50 (human recombinant H-PGDS [2]) [nM]
CCOCCNC(=O)c1ccc(-c2cc(F)ccc2O)nc1 [Example 566, N-(2-Ethoxyethyl)-6-(5-fluoro-2-hydroxyphenyl)nicotinamide]	349	
CC(C)OCCNCCNC(=O)c1ccc(-c2cccc(F)c2)nc1 [Example 583, 6-(3-Fluorophenyl)-N-(2-(2-isopropoxyethylamino)ethyl)nicotinamide]	277	
CC(=O)N1CCC(CNC(=O)c2ccc(-c3cc(F)ccc3O)nc2)CC1 [Example 565, N-[(1-Acetylpiperidin-4-yl)methyl]-6-(5-fluoro-2-hydroxyphenyl)nicotinamide]	114	
O=C(NCCN1CCC(O)CC1)c1ccc(-c2cccc(F)c2)nc1 [Example 575, 6-(3-Fluorophenyl)-N-[2-(4-hydroxypiperidin-1-yl)ethyl]nicotinamide]	162	
CC(C)S(=O)(=O)N1[C@@H]2CC[C@H]1C[C@H](NC(=O)c1ccc(-c3cccc(F)c3)nc1)C2 [Example 591, 6-(3-Fluorophenyl)-N-[(3-exo)-8-(isopropylsulfonyl)-8-azabicyclo[3.2.1]oct-3-yl]nicotinamide]	3.76	
CNCCNC(=O)c1ccc(-c2cccc(F)c2)nc1 [Example 578, 6-(3-Fluorophenyl)-N-(2-(methylamino)ethyl)nicotinamide hydrochloride]	758	
O=C(CCNC(=O)c1ccc(-c2cccc(F)c2)nc1)N[C@H]1CC[C@H](O)CC1 [Example 582, 6-(3-Fuorophenyl)-N-{3-[(trans-4-hydroxycyclohexyl)amino]-3-oxopropyl}nicotinamide]	34.2	
O=C(NCCO)c1ccc(-c2cccc(F)c2)nc1 [Example 577, 6-(3-Fluorophenyl)-N-(2-hydroxyethyl)nicotinamide]	275	
Cc1cccc(-c2ccc(C(=O)NC(C)c3ccncn3)cn2)c1 (stereo not shown) [Example 319, 6-(3-Methylphenyl)-N-(1-pyrimidin-4-ylethyl)nicotinamide]		140
O=C(NCCNc1ccccc1)c1ccc(-c2ccc(F)cc2)nc1 [Example 508, N-(2-Anilinoethyl)-6-(4-fluorophenyl)nicotinamide]		412
CCOC(=O)Cc1noc(CNC(=O)c2ccc(-c3cccc(F)c3)nc2)n1 [Example 201, Ethyl {5-[({[6-(3-fluorophenyl)pyridin-3-yl]carbonyl}amino)methyl]-1,2,4-oxadiazol-3-yl}acetate]		59.2
CN(C)CCNC(=O)c1ccc(-c2ccc(F)cc2)nc1 [Example 467, N-[2-(Dimethylamino)ethyl]-6-(4-fluorophenyl)nicotinamide]		≥ 1000
6-(3-Fluorophenyl)-N-(3- hydroxypropyl)nicotinamide [Example 435]		49.5
COc1cccc(-c2ccc(C(=O)NCC(C)(C)CN(C)C)cn2)c1 [Example 342, N-[3-(Dimethylamino)-2,2-dimethylpropyl]-6-(3-methoxyphenyl)nicotinamide]		≥ 1000
CC(C)c1cc(CNC(=O)c2ccc(-c3cccc(F)c3)nc2)on1 [Example 127, 6-(3-Fluorophenyl)-N-[(3-isopropylisoxazol-5-yl)methyl]nicotinamide]		30.3
COc1cc(F)cc(-c2ccc(C(=O)NCCC3CCCCO3)cn2)c1 (stereo not shown) [Example 560, 6-(3-Fluoro-5-methoxyphenyl)-N-[2-(tetrahydro-2H-pyran-2-yl)ethyl]nicotinamide]		129
Cc1cccc(-c2ccc(C(=O)NCCNc3ccccc3)cn2)c1 [Example 490, N-(2-Anilinoethyl)-6-(3-methylphenyl)nicotinamide]		39.9
O=C(NCc1cn2ncsc2n1)c1ccc(-c2cccc(F)c2)nc1 [Example 182, 6-(3-Fluorophenyl)-N-(imidazo[2,1-b][1,3,4]thiadiazol-6-ylmethyl)nicotinamide]		79.2
O=C(NCC1(O)CCSCC1)c1ccc(-c2cccc(F)c2)nc1 [Example 139, 6-(3-Fluorophenyl)-N-[(4-hydroxytetrahydro-2H-thiopyran-4-yl)methyl]nicotinamide]		39
CC(Cn1cccn1)NC(=O)c1ccc(-c2cccc(F)c2)nc1 (stereo not shown) [Example 126, 6-(3-Fluorophenyl)-N-[1-methyl-2-(1H-pyrazol-1-yl)ethyl]nicotinamide]		33.8
N-(4-Fluorophenyl)-6-(3- fluorophenyl)nicotinamide [Example 425]		52.6
O=C(NCc1ccc(-n2cncn2)cc1)c1ccc(-c2cccc(F)c2)nc1 [Example 180, 6-(3-Fluorophenyl)-N-[4-(1H-1,2,4-triazol-1-yl)benzyl]nicotinamide]		23.1
Cc1ccc2c(c1C)OCCC2NC(=O)c1ccc(-c2cc(F)cc(F)c2)nc1 (stereo not shown) [Example 538, 6-(3,5-Difluorophenyl)-N-(7,8-dimethyl-3,4-dihydro-2H-chromen-4-yl)nicotinamide]		30.1
CCN(CC)CCCCNC(=O)c1ccc(-c2cccc(F)c2)nc1 [Example 102, N-[4-(Diethylamino)butyl]-6-(3-fluorophenyl)nicotinamide]		86.3
Cc1cccc(-c2ccc(C(=O)NCC(=O)OCc3ccccc3)cn2)c1 [Example 236, Benzyl N-{[6-(3-methylphenyl)pyridin-3-yl]carbonyl}glycinate]		109

More lines, now with the values ahead:

IC50 (human recombinant H-PGDS [1]) [nM]	IC50 (human recombinant H-PGDS [2]) [nM]	Compound
	6.64	COc1ccc(OCC(O)CNC(=O)c2ccc(-c3cccc(F)c3)nc2)cc1 (stereo not shown) [Example 43, 6-(3-Fluorophenyl)-N-[2-hydroxy-3-(4-methoxyphenoxy)propyl] nicotinamide]
	16.6	CCCCNC(=O)c1ccc(-c2ccccc2)nc1 [Example 368, N-Butyl-6-phenylnicotinamide]
	4.07	O=C(NCc1cccc(F)c1)c1ccc(-c2ccccc2)nc1 [Example 346, N-(3-Fluorobenzyl)-6-phenylnicotinamide]
	5.41	COc1ccc(CNC(=O)c2ccc(-c3ccccc3)nc2)cc1OC [Example 540, N-(3,4-Dimethoxybenzyl)-6-phenylnicotinamide]
	4.1	COc1ccccc1-c1nnc(CCNC(=O)c2ccc(-c3cccc(F)c3)nc2)o1 [Example 16, 6-(3-Fluorophenyl)-N-{2-[5-(2-methoxyphenyl)-1,3,4-oxadiazol-2-yl]ethyl}nicotinamide]
	8.79	CCOC(=O)CC(C)NC(=O)c1ccc(-c2cccc(F)c2)nc1 (stereo not shown) [Example 157, Ethyl 3-({[6-(3-fluorophenyl)pyridin-3-yl]carbonyl}amino)butanoate]
	8.8	O=C(NCCNc1ccccc1)c1ccc(-c2ccccc2)nc1 [Example 520, N-(2-Anilinoethyl)-6-phenylnicotinamide]
	17.5	CSc1ccc(CNC(=O)c2ccc(-c3ccccc3)nc2)cc1 [Example 518, N-[4-(Methylthio)benzyl]-6-phenylnicotinamide]
	5.3	O=C(NCCCc1ccccn1)c1ccc(-c2cccc(F)c2)nc1 [Example 118, 6-(3-Fluorophenyl)-N-(3-pyridin-2-ylpropyl)nicotinamide]
	5.1	O=C(NCCc1cccs1)c1ccc(-c2ccccc2)nc1 [Example 363, 6-Phenyl-N-[2-(2-thienyl)ethyl]nicotinamide]
	1.12	Cc1cccc(NC(=O)c2ccc(-c3ccccc3)nc2)c1 [Example 392, N-(3-Methylphenyl)-6-phenylnicotinamide]
	12.9	O=C(NCCNc1ncccn1)c1ccc(-c2cccc(F)c2)nc1 [Example 64, 6-(3-Fluorophenyl)-N-[2-(pyrimidin-2-ylamino)ethyl]nicotinamide]
